For 19 compounds, inhibition, relative solubility and IC50 results are on record in the COVID Moonshot data (paper PMC11187573), “Identification of SARS-CoV-2 Mpro inhibitors through deep reinforcement learning for de novo drug design and computational chemistry approaches” (RSC Medicinal Chemistry, 2024).

For data set [1], the target named is SARS-CoV-2 Main Protease (SARS-CoV-2) (UniProt P0DTD1).
For data set [2] the target is unchanged. This is another data set of the same source.

Compound `Cc1cccc(NC(=O)Cn2cncc2C)n1` gave a relative solubility at 20 uM of 1 and a relative solubility at 100 uM of 1.01. In addition, the inhibition in data set [1] (20.0 µM) was -1.3%. The inhibition in data set [1] (50.0 µM) was -3.38%. In data set [2] (50.0 µM), the inhibition came to 0%.

`C=CC(=O)N(c1cc(C(C)(C)C)on1)C(C(=O)NCCc1cccc(F)c1)c1cncc(Cl)c1` (stereo not given) returned a relative solubility at 20 uM of 0.97 and a relative solubility at 100 uM of 0.56. For the same compound, in data set [1] (20.0 µM), the inhibition came out at 15.8%. In addition, in data set [1] (50.0 µM), the inhibition turned out to be 40.2%. In addition, in data set [2], the IC50 was found to be 4.78 µM. Further, in data set [2] (50.0 µM), the inhibition turned out to be 100%.

Turning to `O=C(C(F)Cl)N1CCCC(c2nc3ccccc3s2)C1` (stereo not given), the relative solubility at 20 uM was determined as 0.99 and the relative solubility at 100 uM was found to be 0.99. The inhibition in data set [1] (20.0 µM) is 7.1%. Moreover, in data set [1] (50.0 µM), the inhibition turned out to be 16.2%. The inhibition in data set [2] (20.0 µM) is 0%. In data set [2] (50.0 µM), the inhibition came to 0%.

`C=CC(=O)N(c1ccc(SC)cc1)C(C(=O)Nc1ccc(Cl)cc1)c1cccnc1` (stereo not given) had a relative solubility at 20 uM of 0.81 and a relative solubility at 100 uM of 0.64. In addition, the inhibition in data set [1] (20.0 µM) was 16.9%. Besides, the inhibition in data set [1] (50.0 µM) came out at 32.3%. In addition, the inhibition in data set [2] (20.0 µM) came to 9.4%.

`O=C(c1cc2sccc2s1)N1CCOC(CN2CCOCC2)C1` (stereo not given) yielded a relative solubility at 20 uM of 1 and a relative solubility at 100 uM of 0.99. Besides, the inhibition in data set [1] (20.0 µM) turned out to be 4.6%. Moreover, the inhibition in data set [1] (50.0 µM) stood at 7.85%. In addition, in data set [2] (50.0 µM), the inhibition worked out at 2.34%.

The compound `COc1cc(NC(=O)C(=O)Nc2cc(OC)c(OC)c(OC)c2)cc(OC)c1OC` returned a relative solubility at 20 uM of 0.99 and a relative solubility at 100 uM of 0.92. In data set [1] (20.0 µM), the inhibition was -9.4%. Moreover, the inhibition in data set [1] (50.0 µM) is 4.05%. In data set [2] (20.0 µM), the inhibition came out at 0.456%.

For `Cc1nnc(CC(=O)Nc2cccnc2)s1`, the relative solubility at 20 uM came out at 1 and the relative solubility at 100 uM turned out to be 0.99. In data set [1] (20.0 µM), the inhibition was -1.16%. Also, the inhibition in data set [1] (50.0 µM) is -0.0294%. Further, in data set [2] (20.0 µM), the inhibition was -1.82%. Besides, the inhibition in data set [2] (50.0 µM) was determined as 0%.

In turn, `CC(NC(=O)Nc1cccc(N2CCCCC2=O)c1)c1ccn[nH]1` (stereo not given) registered a relative solubility at 20 uM of 1 and a relative solubility at 100 uM of 1. In addition, the inhibition in data set [1] (20.0 µM) is -8.95%. The inhibition in data set [1] (50.0 µM) was -2.76%. The inhibition in data set [2] (50.0 µM) came out at 0%.

In the case of `CC(NC(=O)c1ccccc1OC1CCCCC1)c1cnccn1` (stereo not given), the relative solubility at 20 uM was found to be 1 and the relative solubility at 100 uM was found to be 1. Moreover, in data set [1] (50.0 µM), the inhibition amounted to 11.2%. Moreover, in data set [2] (20.0 µM), the inhibition worked out at 0%. Moreover, the inhibition in data set [2] (50.0 µM) came out at 0%.

For the compound `C=CC(=O)N(c1ccc(C2CCOC2)cc1)C(C(=O)NC(C)(C)C)c1cccnc1` (stereo not given), the relative solubility at 20 uM is 1.01 and the relative solubility at 100 uM amounted to 1.01. For the same compound, in data set [1] (20.0 µM), the inhibition is -11.9%. In data set [1] (50.0 µM), the inhibition amounted to 4.28%. In data set [2] (20.0 µM), the inhibition was 0%.

The compound `CCC(NC(=O)C(C)n1cncn1)c1ccccc1OCC(=O)N1CCCC1` (stereo not given) yielded a relative solubility at 20 uM of 1 and a relative solubility at 100 uM of 0.99. Moreover, the inhibition in data set [1] (20.0 µM) is -0.907%. Further, the inhibition in data set [1] (50.0 µM) stood at 0.701%. The inhibition in data set [2] (20.0 µM) came to 0%. For the same compound, the inhibition in data set [2] (50.0 µM) was found to be 0%.

With `COc1cccc2c1OCC(NC(=O)c1cc(=O)[nH]c3cc(F)ccc13)C2` (stereo not given), the relative solubility at 20 uM amounted to 0.9 and the relative solubility at 100 uM amounted to 0.86. For the same compound, the inhibition in data set [1] (20.0 µM) was -1.01%. In data set [1] (50.0 µM), the inhibition is -0.175%. Besides, the inhibition in data set [2] (50.0 µM) worked out at 0%.

As for `C=CC(=O)N(c1ccc(C2(C)CC2)cc1)C(C(=O)Nc1cccc(CC)c1)c1cccnc1` (stereo not given), the relative solubility at 20 uM was 0.86 and the relative solubility at 100 uM turned out to be 0.65. Also, the inhibition in data set [1] (50.0 µM) worked out at 21%. The inhibition in data set [2] (20.0 µM) worked out at 4.53%. Moreover, the inhibition in data set [2] (50.0 µM) amounted to 47.2%.

In turn, `NS(=O)(=O)c1ccc(N2CCC(N3CCCCC3)CC2)cc1` registered a relative solubility at 20 uM of 1 and a relative solubility at 100 uM of 1. Further, the inhibition in data set [1] (50.0 µM) came out at 7.79%. Further, in data set [2] (20.0 µM), the inhibition turned out to be 0%. Also, in data set [2] (50.0 µM), the inhibition came out at 0%.

In the case of `O=C(Nc1nc2ccc(F)cn2n1)C1CCOc2ccc(Cl)cc21` (stereo not given), the relative solubility at 20 uM came out at 1 and the relative solubility at 100 uM stood at 0.99. In data set [1] (20.0 µM), the inhibition was -28.5%. Moreover, the inhibition in data set [1] (50.0 µM) was found to be 7.58%. In data set [2] (50.0 µM), the inhibition is 0%.

As for `Cc1ccn(CC(=O)NCc2nccn2CCc2ccccc2)c(=O)c1`, the relative solubility at 20 uM is 1 and the relative solubility at 100 uM turned out to be 1. The inhibition in data set [1] (20.0 µM) is -14.1%. Further, the inhibition in data set [1] (50.0 µM) is -2.52%. Further, the inhibition in data set [2] (50.0 µM) turned out to be 0%.

Take `Cn1cc(S(N)(=O)=O)cc1CC(=O)Nc1cccc(C(=O)NCc2ccccn2)c1`: the relative solubility at 20 uM is 1 and the relative solubility at 100 uM amounted to 1. Moreover, in data set [1] (20.0 µM), the inhibition was -21.5%. Besides, the inhibition in data set [1] (50.0 µM) was -0.596%. Besides, the inhibition in data set [2] (50.0 µM) amounted to 0%.

`Nc1cccc(C2CN(C(=O)CCl)Cc3ccccc32)c1` (stereo not given) displayed a relative solubility at 20 uM of 0.97 and a relative solubility at 100 uM of 0.96. Further, the inhibition in data set [1] (20.0 µM) amounted to 48%. The inhibition in data set [1] (50.0 µM) came out at 53.4%. In data set [2], this compound registered an IC50 of 11.4 µM. For the same compound, the inhibition in data set [2] (50.0 µM) was found to be 100%.

Compound `CN1CCC(C(=O)NC2CCCCC2NC(=O)c2ccccc2)CC1` (stereo not given) showed a relative solubility at 20 uM of 0.98 and a relative solubility at 100 uM of 0.99. For the same compound, the inhibition in data set [1] (50.0 µM) was -15.4%. Also, in data set [2] (20.0 µM), the inhibition turned out to be 0%. In addition, the inhibition in data set [2] (50.0 µM) was found to be 0%.
